Measurements taken from patent publication US6017890A, “Azole peptidomimetics as thrombin receptor antagonists” (Ortho-McNeil Pharmaceutical, Inc., priority 1999, dated 2000).
Starred links: 1 amine or outer side, 2 acyl side, 3 side chain; linkers in the order of their positions; H or OH if unused. Non-standard residues stand in square brackets, D forms with d. Residues, ends and D or L forms follow the SMILES beside them. Phe(4-F)ψ(2,4-Thz) = O=C(c1csc([C@H](Cc2ccc(F)cc2)N[*:1])n1)[*:2]; Cha = N[C@@H](CC1CCCCC1)C(=O)O

Legend:
[1] = molecular target: T1, thrombin receptor (Homo sapiens, UniProt P25116); test: In vitro thrombin receptor binding assay (displacement of tritiated 721-40 from CHRF membranes); settings: tritiated 721-40 (Ser-pFPhe-Har-Leu-Har-Lys-Tyr-NH2) radioligand, read-out: Thr Receptor Binding IC50
T1 construct: CHRF membranes (Jones, Biochim. Biophys. Acta 1992, 1136, 272) are thawed from -70° C; endogenous in cells; host or cells: CHRF cell membranes
T1 sequence (P25116 22-425): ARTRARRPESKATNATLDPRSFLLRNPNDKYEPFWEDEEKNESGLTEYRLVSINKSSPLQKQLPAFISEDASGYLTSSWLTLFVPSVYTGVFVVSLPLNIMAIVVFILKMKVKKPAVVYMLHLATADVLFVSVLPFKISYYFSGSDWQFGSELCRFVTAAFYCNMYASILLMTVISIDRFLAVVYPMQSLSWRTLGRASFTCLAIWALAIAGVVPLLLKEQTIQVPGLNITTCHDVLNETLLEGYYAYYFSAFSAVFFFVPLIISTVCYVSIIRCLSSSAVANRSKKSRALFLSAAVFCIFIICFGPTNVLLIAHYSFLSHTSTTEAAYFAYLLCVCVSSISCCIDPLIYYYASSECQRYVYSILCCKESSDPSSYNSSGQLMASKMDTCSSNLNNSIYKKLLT
Description: CHRF membranes (Jones, Biochim. Biophys. Acta 1992, 1136, 272) are thawed from -70° C., centrifuged at maximum speed for 5 min, washed twice with binding buffer (50 mM HEPES containing 5 mM MgCl2 and 0.1% BSA), and re-suspended in binding buffer ([…]). 100 μl of membranes are added to the 24-Wallac plates and delivered to the Tomtech apparatus. In a typical experiment, 6 μl of samples (from a 125 μg/mL intermediary plate, 20% DMSO) and 44 μl buffer are delivered to the plates (final conc. of compounds is 3.7 μg/mL, 0.6% DMSO). Similarly, 6 μl 20% DMSO and 44 μl buffer are delivered to both column 1 (NSB) and column 12 (TB). 10 μl Ser-pFPhe-Har-Leu-Har-Lys-Tyr-NH2 [SEQ. ID. NO:2] (721-40; 500 μM in deionized water) is added to column 1. 50 μl tritiated 721-40 (specific activity 46 Ci/mmol) is added to all the wells. The plates are mixed well for 20 seconds, incubated for 30 min, and then harvested with 10 mM HEPES/138 mM NaCl using the Skatron harvester. The filters (GF/C Brandel FPXLR 296) are presoaked 3 h in 0.5% polyethylenimine in HEPES/0.1 M N-acetylglucosamine) are set in saran wrap and dried for 3 min in the microwave, and placed in sample bags (Wallac 1450-432). 4.5 mL scintillation fluid (Wallac, Betaplate Scint 1205-440) is added. The bags are sealed, placed in filter cassettes (Wallac 1450-104), and analyzed on the microbeta counter.
(§1) The table contains IC50 values (μM) of the compounds in a thrombin receptor binding assay, and IC50 values (μM) against platelet aggregation stimulated by two agonists, thrombin or SFLLRN-NH2 [SEQ. ID. NO:1] (TRAP).

[2] = molecular target: T2, gel-filtered platelets (SFLLRN-NH2 (TRAP)-stimulated aggregation) (Homo sapiens, UniProt P25116); test: In vitro inhibition of SFLLRN-NH2 (TRAP)-induced gel-filtered platelet aggregation; type: cell-based; settings: agonist SFLLRN-NH2 (TRAP)
T2 sequence (P25116 42-425): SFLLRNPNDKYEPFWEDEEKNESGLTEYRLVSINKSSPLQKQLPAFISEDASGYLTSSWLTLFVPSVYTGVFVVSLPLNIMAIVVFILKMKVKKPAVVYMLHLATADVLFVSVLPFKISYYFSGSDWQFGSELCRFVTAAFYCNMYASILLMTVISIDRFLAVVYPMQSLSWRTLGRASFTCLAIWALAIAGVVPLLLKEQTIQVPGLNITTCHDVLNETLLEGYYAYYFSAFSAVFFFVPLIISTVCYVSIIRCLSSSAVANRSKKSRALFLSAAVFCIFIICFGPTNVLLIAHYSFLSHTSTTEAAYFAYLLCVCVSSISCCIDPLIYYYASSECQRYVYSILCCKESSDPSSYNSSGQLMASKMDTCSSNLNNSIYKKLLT
Description: The percentage of platelet aggregation is calculated as an increase in light transmission of compound-treated platelet concentrate vs. control-treated platelet concentrate. Human blood is obtained from drug free, normal donors in tubes containing 0.13 M sodium citrate. Platelet rich plasma (PRP) is collected by centrifugation of whole blood at 200×g for 10 min at 25° C. The PRP (5 mL) is gel filtered through Sepharose 2B (bed volume 50 mL), and the platelet count is adjusted to 2×10^7 platelets per sample. The following constituents are added to a siliconized cuvette: concentrated platelet filtrate and Tyrode's buffer (0.14 M NaCl, 0.0027 M KCl, 0.012 M NaHCO3, 0.76 mM Na2 HPO4, 0.0055 M glucose, 2 mg/mL BSA and 5.0 mM HEPES@pH 7.4) in an amount equal to 350 μl, 50 μl of 20 mM calcium and 50 μl of the test compound. Aggregation is monitored in a BIODATA aggregometer for the 3 min following the addition of agonist (thrombin 50 μl of 1 unit/mL).
as §1

CNCC(=O)N[C@@H](Cc1ccc(F)cc1)c1nc(C(=O)N[C@@H](CC2CCCCC2)C(=O)N[C@@H](CCCN=C(N)N)C(=O)NCc2ccccc2)co1 [Compound 1, 2-[1(S)-Sarcosineamido-2-(4-fluorophenyl)ethyl]oxazole-4-carboxy-cyclohexylalanyl-arginine benzylamide] was tested, and the IC50 [1] was 2 µM and the IC50 [2] was 10 µM.
Work on CNCC(=O)N[C@@H](Cc1ccc(F)cc1)c1nc(C(=O)N[C@@H](CCCCN)C(=O)N[C@@H](CCCNC(=N)N)C(=O)NCCc2ccccc2)cs1 [Compound 6, 2-[1(S)-Sarcosineamido-2-(4-fluorophenyl)ethyl]thiazole-4-carboxy-lysyl-arginine phenethylamide] yielded an IC50 [1] of 15.5 µM and an IC50 [2] of 4 µM.
With CNCC(=O)N[C@@H](Cc1ccc(F)cc1)c1nc(C(=O)N[C@@H](CC2CCCCC2)C(=O)N[C@@H](CCCN=C(N)N)C(=O)NCCc2ccccc2)cs1 [Compound 3, 2-[1(S)-Sarcosineamido-2-(4-fluorophenyl)ethyl]thiazole-4-carboxy-cyclohexylalanyl-arginine phenethylamide] the IC50 [1] was 35 µM and the IC50 [2] was 0.6 µM.
Work on CC[C@H](C)[C@H](N)C(=O)N[C@@H](Cc1ccc(F)cc1)c1nc(C(=O)N[C@@H](CC2CCCCC2)C(=O)N[C@@H](CCCN=C(N)N)C(=O)N[C@@H](Cc2ccccc2)C(N)=O)cs1 [Compound 5, 2-[1(S)-Isoleucineamido-2-(4-fluorophenyl)ethyl]thiazole-4-carboxy-cyclohexylalanyl-arginyl-phenylalanineamide] (H-I[Phe(4-F)ψ(2,4-Thz)][Cha]RF-NH2) yielded an IC50 [1] of 3.5 µM and an IC50 [2] of 9 µM.
In the case of N=C(N)NCCC[C@H](NC(=O)[C@H](CC1CCCCC1)NC(=O)c1coc([C@H](Cc2ccc(F)cc2)NC(=O)CCN)n1)C(=O)NCc1ccccc1 [Compound 2, 2-[1(S)-β-Alanineamido-2-(4-fluorophenyl)ethyl]oxazole-4-carboxy-cyclohexylalanyl-arginine benzylamide], the IC50 [1] is reported as 8.2 µM and the IC50 [2] is reported as 7 µM.
With CC(=O)N[C@@H](Cc1ccc(F)cc1)c1nc(C(=O)N[C@@H](CC2CCCCC2)C(=O)N[C@@H](CCCNC(=N)N)C(=O)NCc2ccccc2)c(C)o1 [Compound 9, 2-[1(S)-Acetamido-2-(4-fluorophenyl)ethyl]-5-methyloxazole-4-carboxy-cyclohexylalanyl-arginine benzylamide] the IC50 [1] was 31 µM and the IC50 [2] was 11 µM.
With CNCC(=O)N[C@@H](Cc1ccc(F)cc1)c1nc(C(=O)N[C@@H](CC2CCCCC2)C(=O)N[C@@H](CCCNC(=N)N)C(=O)NCc2ccccc2)c(C)o1 [Compound 7, 2-[1(S)-Sarcosineamido-2-(4-fluorophenyl)ethyl]-5-methyloxazole-4-carboxy-cyclohexylalanyl-arginine benzylamide] the IC50 [1] was 7 µM and the IC50 [2] was 22 µM.
Cc1oc([C@H](Cc2ccc(F)cc2)N(C)C)nc1C(=O)N[C@@H](CC1CCCCC1)C(=O)N[C@@H](CCCNC(=N)N)C(=O)NCc1ccccc1 [Compound 10, 2-[1(S)-N,N-Dimethyl-2-(4-fluorophenyl)ethyl]-5-methyloxazole-4-carboxy-cyclohexylalanyl-arginine benzylamide] showed an IC50 [2] of 17 µM.
Cc1oc([C@H](Cc2ccc(F)cc2)NC(=O)[C@@H](N)Cc2cn(Cc3ccccc3)cn2)nc1C(=O)N[C@@H](CC1CCCCC1)C(=O)N[C@@H](CCCNC(=N)N)C(=O)NCc1ccccc1 [Compound 8, 2-[1(S)-N(tau)-Benzyl-histidineamido-2-(4-fluorophenyl)ethyl]-5-methyloxazole-4-carboxy-cyclohexylalanyl-arginine benzylamide] was tested, and the IC50 [1] was 30 µM and the IC50 [2] was 5 µM.
